The target in this assay is T1, angiotensin II receptor (Rattus norvegicus, UniProt P25095).
T1 sequence (P25095 1-359): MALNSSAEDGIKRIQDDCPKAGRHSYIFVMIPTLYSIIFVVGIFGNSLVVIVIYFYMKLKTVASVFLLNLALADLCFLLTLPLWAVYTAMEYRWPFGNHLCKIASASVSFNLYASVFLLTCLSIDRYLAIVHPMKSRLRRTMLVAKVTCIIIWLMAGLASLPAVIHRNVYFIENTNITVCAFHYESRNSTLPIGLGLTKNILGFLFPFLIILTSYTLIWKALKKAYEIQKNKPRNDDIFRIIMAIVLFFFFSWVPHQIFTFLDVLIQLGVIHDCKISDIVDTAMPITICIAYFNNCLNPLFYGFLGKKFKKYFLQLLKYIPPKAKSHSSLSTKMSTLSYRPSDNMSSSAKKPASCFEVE
The experiment in a line: Inhibition of binding of angiotensin II to rat smooth muscle cells (125I-Tyr4-angiotensin II). Particulars: 125I-AII; rat aorta-derived smooth muscle cells; room temperature, one hour; read-out: IC50, inhibitory activity to the binding of angiotensin II to its receptor.
For `CCc1nc2c(C)cc(C)nc2n1Cc1ccc2nc(-c3ccccc3-c3nnn[nH]3)ccc2c1` [Example 15, 2-ethyl-5,7-dimethyl-3-{[2-[2-(1H-tetrazol-5-yl)phenyl]quinolin-6-yl]methyl}-3H-imidazo[4,5-b]pyridine], the IC50 (as a rule, the concentration at which inhibition is half-maximal) came to 0.94 nM. Consider `CCCCc1nc(Cl)c(CO)n1Cc1ccc2nc(-c3ccccc3-c3nnn[nH]3)ccc2c1` [Example 11, {2-butyl-4-chloro-1-{[2-[2-(1H-tetrazol-5-yl)phenyl]quinolin-6-yl]methyl}-1H-imidazol-5-yl}methanol], for which the IC50 was determined as 2.5 nM. Next, `CCCCc1nc2cccnc2n1Cc1ccc2nc(-c3ccccc3C(=O)O)ccc2c1` [Example 17]: 11 nM; `CCCCc1nc(Cl)c(C=O)n1Cc1ccc2nc(-c3ccccc3C(=O)O)ccc2c1`: 50 nM.

Consider `CCc1nc2c(C)cc(C)nc2n1Cc1ccc2nc(-c3ccccc3-c3nnn[nH]3)cc(Cl)c2c1` [Example 21, 2-ethyl-5,7-dimethyl-3-{[4-chloro-2-[2-(1H-tetrazol-5-yl)phenyl]quinolin-6-yl]methyl}-3H-imidazo[4,5-b]pyridine], for which the IC50 worked out at 7.7 nM. Next, `CCCCc1nc(Cl)c(CO)n1Cc1ccc2nc(-c3ccccc3C(=O)O)ccc2c1`: 0.92 nM; `CCc1nc2c(C)cc(C)nc2n1Cc1ccc2nc(-c3ccccc3C(=O)O)ccc2c1`: 6.4 nM.

As to `CCc1nc2c(C)cc(C)nc2n1Cc1ccc2nc(-c3ccccc3C(=O)OC)ccc2c1` [Example 12, methyl 2-{6-[(2-ethyl-5,7-dimethyl-3H-imidazo-[4,5-b]pyridin-3-yl)methyl]quinolin-2-yl}benzoate], the IC50 was 440 nM.

These data come from patent US5478832A, “Quinoline compounds” (The Green Cross Corporation, priority 1992, dated 1995).
